Experimental data reported in PubChem BioAssay AID1845197 (Molecular Pharmacology Branch, DTP, NCI, 2023).
Values joined by “and” are separate entries in the source; they are usually repeats but may differ in a detail not shown here. Equal entries are not always repeated.

System: 349418-098-R tumor spheroid viability
Experiment: Anticancer human tumor 349418-098-R patient-derived lung adenocarcinoma cell line growth inhibition
Conditions: spheroids with HUVEC and MSC; for viability, T/C: stronger effect = lower value
From the text: Multicellular complex tumor spheroid response to DNA repair inhibitors in combination with DNA-damaging drugs
This study explores the anticancer activities of DNA-damaging drugs and inhibitors of DNA damage repair, both as single agents and in combinations. Complex tumor spheroids comprised of malignant cells, endothelial cells and mesenchymal stem cells served as an in vitro model for human solid tumors. This model system incorporates physiologically relevant features and patient-derived or established malignant cell lines with clinically relevant genetic alterations from many tumor types. Twenty-six patient-derived or established malignant cell lines were evaluated representing sarcoma, melanoma, small cell lung cancer (SCLC), non-small cell lung cancer (NSCLC), as well as bladder, ovarian and pancreatic cancers. The concentration ranges selected for each drug and investigational agent were based upon clinically achievable concentrations if the clinical Cmax of the agent was known.
Compounds. The drugs and compounds olaparib (NSC753686), talazoparib (NSC767125), berzosertib (NSC777718), elimusertib (NSC800525), nedisertib (NSC802822), VX-984 (NSC792969), AZD-1390 (NSC803789), temozolomide (NSC362856), topotecan (NSC609699), trabectedin (NSC813783), staurosporine (NSC755774), and gemcitabine (NSC613327) were obtained from the National Cancer Institute (NCI) Developmental Therapeutics Program Chemical Repository. The FDA-approved anticancer drug set is available from the Developmental Therapeutics Program at https://dtp.cancer.gov/organization/dscb/obtaining/available_plates.htm. […] The stock solutions were prepared in dimethyl sulfoxide (DMSO, Sigma-Aldrich, St. Louis, MO, cat. D2650) at 400-fold the tested concentration and stored at -70 degrees C. Prior to their use, the stock solutions were diluted in fresh medium and the final DMSO concentration in the assay was 0.25% (v/v). All drugs and investigational agents were tested over a range starting from a high concentration at or near the clinical Cmax and decreasing in half-log increments. If the clinical Cmax for an agent had not been determined, the highest concentration tested was 10 microM.
Cell Lines. The patient-derived cancer cell (PDC) lines: 156681-154-R-J1-PDC, 283228-195-R-J1-PDC, 287954-098-R-J1-PDC, 292921-168-R-J2-PDC, 349418-098-R-PDC, 425362-245-T-J1-PDC, 556581-035-R-J1-PDC, and BL0293-F563-PDC were received from the NCI Patient-Derived Models Repository (PDMR, https://pdmr.cancer.gov). The established cell lines HS-SY-2 (RRID:CVCL_8719), MPNST, and SYO-1 (RRID:CVCL_7146) were obtained from the Sloan Kettering Institute. The alveolar soft parts sarcoma cell line ASPS-1 (RRID:CVCL_S738) was established at the NCI and grown from internal seed stocks. The following established cell lines were purchased from the American Type Culture Collection (ATCC, Manassas, VA): G-401 (ATCC, cat. CRL-1441, RRID:CVCL_0270), SW982 (ATCC, cat. HTB-93, RRID:CVCL_1734), VA-ES-BJ (ATCC, cat. CRL-2138, RRID:CVCL_1785), NCI-H719 (ATCC, cat. CRL-5837, RRID:CVCL_1582), NCI-H196 (ATCC, cat. CRL-5823, RRID:CVCL_1509), NCI-H841 (ATCC, cat. CRL-5845, RRID:CVCL_1595), NCI-H1618 (ATCC, cat. CRL-5879, RRID:CVCL_1480), NCI-H1876 (ATCC, cat. CRL-5902, RRID:CVCL_1503), DMS 114 (ATCC, cat. CRL-2066; RRID:CVCL_1174), NCI-H211 (ATCC, cat. CRL-5824; RRID:CVCL_1529), and SW 1271 (ATCC, cat. CRL-2177, RRID:CVCL_1716). The small cell lung cancer cell line COR-L88 was purchased from Sigma-Aldrich (cat. 92031917-1VL, RRID:CVCL_1141). The non-small cell lung cancer cell lines NCI-H226 (RRID:CVCL_1544) and NCI-H322M (RRID:CVCL_1557) were established at the NCI and grown from internal seed stocks. Pooled donor human umbilical vein endothelial cells (HUVEC, Lonza, cat. CC-2519) and human mesenchymal stem cells (hMSC, Lonza, cat. PT-2501) were purchased from Lonza (Walkersville, MD).
Cell Culture. All cells were maintained in an incubator at 37 degrees C and 5% CO2 with 95% humidity. […]
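Also: spheroids exposed to compound for 7 days before measurement.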
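For viability, T/C in this document: percent of vehicle control viability with 100% = DMSO-treated spheroids.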

Q: What does the source list for `O=C(c1cc(Cc2n[nH]c(=O)c3ccccc23)ccc1F)N1CCN(C(=O)C2CC2)CC1` + COc1cc2c(cc1O)CCNC21CSC2c3c(OC(C)=O)c(C)c4c(c3C(COC1=O)N1C(O)C3Cc5cc(C)c(OC)c(O)c5C(C21)N3C)OCO4?
A: IC50 (curve of first compound, second compound 30 pM): > 30 µM; IC50 (curve of first compound, second compound 94.9 pM): > 30 µM; IC50 (curve of first compound, second compound 0.0003 µM): 3.7 µM; IC50 (curve of first compound, second compound 0.000949 µM): < 0.0949 µM; IC50 (curve of first compound, second compound 0.003 µM): < 0.0949 µM; viability, T/C (second compound 30 pM, first compound 0.0949 µM): 122%; viability, T/C (second compound 30 pM, first compound 0.3 µM): 107%; viability, T/C (second compound 30 pM, first compound 0.949 µM): 108%; viability, T/C (second compound 30 pM, first compound 3 µM): 111%; viability, T/C (second compound 30 pM, first compound 9.49 µM): 107%; viability, T/C (second compound 30 pM, first compound 30 µM): 69.6%; viability, T/C (second compound 94.9 pM, first compound 0.0949 µM): 104%; viability, T/C (second compound 94.9 pM, first compound 0.3 µM): 108%; viability, T/C (second compound 94.9 pM, first compound 0.949 µM): 102%; viability, T/C (second compound 94.9 pM, first compound 3 µM): 107%; viability, T/C (second compound 94.9 pM, first compound 9.49 µM): 98.7%; viability, T/C (second compound 94.9 pM, first compound 30 µM): 54.6%; viability, T/C (second compound 0.0003 µM, first compound 0.0949 µM): 94.9%; viability, T/C (second compound 0.0003 µM, first compound 0.3 µM): 87.4%; viability, T/C (second compound 0.0003 µM, first compound 0.949 µM): 79.7%; viability, T/C (second compound 0.0003 µM, first compound 3 µM): 58.9%; viability, T/C (second compound 0.0003 µM, first compound 9.49 µM): 19.3%; viability, T/C (second compound 0.0003 µM, first compound 30 µM): 5.2%; viability, T/C (second compound 0.000949 µM, first compound 0.0949 µM): 0.44%; viability, T/C (second compound 0.000949 µM, first compound 0.3 µM): 0.4%; viability, T/C (second compound 0.000949 µM, first compound 0.949 µM): 0.25%; viability, T/C (second compound 0.000949 µM, first compound 3 µM): 0.25%; viability, T/C (second compound 0.000949 µM, first compound 9.49 µM): 0.15%; viability, T/C (second compound 0.000949 µM, first compound 30 µM): 0.44%; viability, T/C (second compound 0.003 µM, first compound 0.0949 µM): 1.64%; viability, T/C (second compound 0.003 µM, first compound 0.3 µM): 1.88%; viability, T/C (second compound 0.003 µM, first compound 0.949 µM): 1.67%; viability, T/C (second compound 0.003 µM, first compound 3 µM): 2.88%; viability, T/C (second compound 0.003 µM, first compound 9.49 µM): 3.79%; viability, T/C (second compound 0.003 µM, first compound 30 µM): 5.74%

Q: Which results are given for `O=C(c1cc(Cc2n[nH]c(=O)c3ccccc23)ccc1F)N1CCN(C(=O)C2CC2)CC1`?
A: viability, T/C (compound 0.0949 µM): 103% and 97.1% and 105%; viability, T/C (compound 0.3 µM): 104% and 106% and 113%; viability, T/C (compound 0.949 µM): 101% and 97.6% and 107%; viability, T/C (compound 3 µM): 94.8% and 97.7% and 110%; viability, T/C (compound 9.49 µM): 84.8% and 83.9% and 106%; viability, T/C (compound 30 µM): 56.2% and 53.6% and 74.1%; IC50 (curve of compound): > 30 µM

Q: Which results are given for `[2H]c1nc(C)nc([2H])c1-c1cc(NC[C@@H](C)c2cccc3c(C(=O)NC)ccnc23)ncn1`?
A: viability, T/C (compound 0.0316 µM): 109% and 102% and 93.6%; viability, T/C (compound 0.1 µM): 109% and 103% and 105%; viability, T/C (compound 0.316 µM): 106% and 101% and 113%; viability, T/C (compound 1 µM): 105% (2×) and 107%; viability, T/C (compound 3.16 µM): 114% and 103% (2×); viability, T/C (compound 10 µM): 112% and 102% and 105%; IC50 (curve of compound): > 10 µM
